Results: patent publication EP0549365A1, “Thiazolidine compounds, their preparation and their therapeutic uses” (Sankyo Company Limited, priority 1991, dated 1993)

Test system: diabetic male mice of the KK strain
Assay: Hypoglycemic activity (blood glucose lowering in diabetic KK mice)
Assay type: in vivo
Settings: Mus musculus, 50 mg/kg oral, blood from tail vein after 18 hours free feeding, relative to solvent group, read-out: BGL lowering rate (%)
Protocol: The test animals used were diabetic male mice of the KK strain, each having a body weight more than 40 g. Each animal was orally administered 50 mg/kg of a test compound and then allowed to feed freely for 18 hours. At the end of this time, blood was collected from the tail veins without anesthesia. The blood glucose level (BGL) was determined by means of a glucose analyzer (GL-101, manufactured by Mitsubishi Kasei Co.).
The blood glucose lowering rate was calculated by the following equation: Blood glucose lowering rate (%) = [(BGLs - BGLt )/BGLs ] x 100 [formula] where: BGLs is the BGL in the group administered a solvent; and BGLt is the BGL in the group administered a test compound.

| Structure (SMILES) | inhibition in vivo at 50 mg/kg [%] |
| --- | --- |
| CC1=C(C)C(=O)C(CCC(C)(O)COc2ccc(CC3SC(=O)NC3=O)cc2)=C(C)C1=O (centres unmarked) [Control 1, 5-{4-[2-Methyl-2-hydroxy-4-(3,5,6-trimethyl-1,4-benzoquinon-2-yl)butoxy]benzyl}thiazolidine-2,4-dione, reference compound] | -0.5 |
| Cc1c(C)c(O)c(CCC(C)(O)COc2ccc(CC3SC(=O)NC3=O)cc2)c(C)c1O (centres unmarked) [Control 2, 5-{4-[4-(2,5-Dihydroxy-3,4,6-trimethylphenyl)-2-hydroxy-2-methylbutoxy]benzyl}thiazolidine-2,4-dione, reference compound] | 10.4 |
| CC(=O)Oc1c(C)c(C)c(OC(C)=O)c(Oc2ccc(CC3SC(=O)NC3=O)cc2)c1C (centres unmarked) [Example 7, 5-[4-(2,5-Diacetoxy-3,4,6-trimethylphenoxy)benzyl]thiazolidine-2,4-dione] | 24 |
| COc1c(C)c(C)c(OC)c(COc2ccc(CC3SC(=O)NC3=O)cc2)c1C (centres unmarked) [Example 9] | 28.8 |
| COc1c(C)c(C)c(OC)c(CCCOc2ccc(CC3SC(=O)NC3=O)cc2)c1C (centres unmarked) [Example 10, 5-{4-[3-(2,4,5-trimethyl-3,6-dimethoxyphenyl)propoxy]benzyl}thiazolidine-2,4-dione] | 46 |
| COc1c(C)c(C)c(OC)c(CCCCOc2ccc(CC3SC(=O)NC3=O)cc2)c1C (centres unmarked) [Example 12] | 24 |
| COc1c(C)c(CCOc2ccc(CC3SC(=O)NC3=O)cc2)c(OC)c(OC)c1OC (centres unmarked) [Example 16] | 20.2 |
| COc1c(C)c(CCCOc2ccc(CC3SC(=O)NC3=O)cc2)c(OC)c(OC)c1OC (centres unmarked) [Example 18] | 22 |
| COc1c(C)c(CCCCOc2ccc(CC3SC(=O)NC3=O)cc2)c(OC)c(OC)c1OC (centres unmarked) [Example 19] | 26.6 |
| CC(=O)Oc1c(C)c(C)c(OC(C)=O)c(CCOc2ccc(CC3SC(=O)NC3=O)cc2)c1C (centres unmarked) [Example 21] | 33.4 |
| CC(=O)Oc1c(C)c(C)c(OC(C)=O)c(CCCOc2ccc(CC3SC(=O)NC3=O)cc2)c1C (centres unmarked) [Example 23] | 24.4 |
| COc1cc(COc2ccc(CC3SC(=O)NC3=O)cc2)c(OC)c2ccccc12 (centres unmarked) [Example 31] | 32.9 |
| COc1c(C)c(COc2ccc(CC3SC(=O)NC3=O)cc2)c(OC)c2ccccc12 (centres unmarked) [Example 33] | 28.4 |
| COc1cc(CCOc2ccc(CC3SC(=O)NC3=O)cc2)c(OC)c2ccccc12 (centres unmarked) [Example 34] | 40 |
